Assay results taken from patent US8933103B2, “Pyridone derivatives” (Daiichi Sankyo Company, Limited, priority 2012, dated 2015).

How the values were obtained:
[1] = molecular target: T1, phosphorylated Axl (pAxl Y702) in NCI-H1299 cells (Homo sapiens, UniProt P30530); assay: Intracellular Axl Phosphorylation Inhibitory Activity (pAxl, NCI-H1299 cells); format: cell-based; details: 1 h compound incubation, GAS6 stimulation 10 minutes, pAxl (Y702) level
T1 construct: endogenous in cells; host or cells: NCI-H1299
T1 sequence (P30530 26-894): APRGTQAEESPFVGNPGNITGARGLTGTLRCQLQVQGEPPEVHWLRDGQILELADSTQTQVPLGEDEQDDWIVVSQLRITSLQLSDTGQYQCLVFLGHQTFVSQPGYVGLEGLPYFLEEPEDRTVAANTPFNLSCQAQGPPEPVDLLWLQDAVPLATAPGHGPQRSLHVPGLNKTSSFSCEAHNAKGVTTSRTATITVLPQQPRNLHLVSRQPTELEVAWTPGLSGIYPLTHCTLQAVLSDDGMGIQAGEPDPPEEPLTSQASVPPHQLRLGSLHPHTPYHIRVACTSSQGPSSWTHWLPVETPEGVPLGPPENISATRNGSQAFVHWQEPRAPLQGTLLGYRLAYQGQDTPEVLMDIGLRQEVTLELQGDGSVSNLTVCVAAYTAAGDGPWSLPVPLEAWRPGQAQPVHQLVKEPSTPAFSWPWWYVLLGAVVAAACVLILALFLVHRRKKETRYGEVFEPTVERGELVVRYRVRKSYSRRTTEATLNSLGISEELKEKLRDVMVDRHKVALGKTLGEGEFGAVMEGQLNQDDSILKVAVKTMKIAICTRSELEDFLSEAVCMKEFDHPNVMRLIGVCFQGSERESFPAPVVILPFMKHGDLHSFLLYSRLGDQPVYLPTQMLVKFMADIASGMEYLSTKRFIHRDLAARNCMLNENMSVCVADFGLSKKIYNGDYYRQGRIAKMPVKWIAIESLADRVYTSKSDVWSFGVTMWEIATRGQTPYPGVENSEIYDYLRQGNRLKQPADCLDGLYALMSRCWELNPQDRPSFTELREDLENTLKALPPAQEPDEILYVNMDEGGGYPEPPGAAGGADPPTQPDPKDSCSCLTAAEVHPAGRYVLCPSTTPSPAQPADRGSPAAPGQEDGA
Procedure: A phosphorylated Axl (hereinafter pAxl) inhibitory test was performed using the human non-small-cell lung cancer-derived cell strain NCI-H1299.
On the following day, the medium was removed, 100 μl of fresh medium were added, and the cells were cultured at 37° C. in the presence of 5% CO2 for one day.
The test compound was dissolved in DMSO and diluted with medium to prepare a sample solution (DMSO concentration: 2%). Twenty-five microliters of medium or sample-added medium was added to each well (DMSO concentration: 0.4%), and the plate was incubated at 37° C. in the presence of 5% CO2 for one hour.
After stirring, the plate was incubated at 37° C. in the presence of 5% CO2 for 10 minutes.
The supernatant was discarded, and 0.1 ml of a 37% formalin solution diluted to 4% with phosphate buffer (PBS) (hereinafter “4% formalin solution”) was added to each well. The plate was allowed to stand at room temperature for 10 minutes.
Next, the 4% formalin solution was discarded, and 0.2 ml of a solution of Triton X-100 diluted to 0.1% with PBS (hereinafter “wash buffer”) was added. The wash buffer was discarded using a decanter, and excess moisture in the plate was removed on a paper towel.
Subsequently, […] NaN3 and H2O2 were added to the wash buffer at 0.1% (hereinafter “quenching buffer”), and 0.1 ml of the quenching buffer was added to each well. The plate was allowed to stand at room temperature for 15 minutes.
The quenching buffer was discarded, and 0.2 ml of wash buffer was added. The wash buffer was discarded using a decanter, and excess moisture in the plate was removed on a paper towel.
Skim milk (Nacalai Tesque) was added to the wash buffer at a final concentration of 5% (hereinafter “blocking buffer”), and 0.25 ml of the blocking buffer was added to each well. The plate was allowed to stand at room temperature for one hour.
After light stirring, the plate was incubated for 20 minutes. Luminescence was then measured by ARVO sx (PerkinElmer), and the pAxl (Y702) level was measured.
pAxl Inhibitory activity was determined by the following formula. Inhibition %=100−(A−B)×100/(T−B)
A: Measurement of the test compound
T: Luminescence value of the reaction solution with a compound not added

[2] = molecular target: T2, AXL (fusion protein of amino acids 464-885 of the intracellular domain of human AXL with glutathione transferase) (Homo sapiens, UniProt P30530); assay: Cell-Free Axl Kinase Inhibitory Activity
T2 sequence (P30530 464-885 isoform P30530-2): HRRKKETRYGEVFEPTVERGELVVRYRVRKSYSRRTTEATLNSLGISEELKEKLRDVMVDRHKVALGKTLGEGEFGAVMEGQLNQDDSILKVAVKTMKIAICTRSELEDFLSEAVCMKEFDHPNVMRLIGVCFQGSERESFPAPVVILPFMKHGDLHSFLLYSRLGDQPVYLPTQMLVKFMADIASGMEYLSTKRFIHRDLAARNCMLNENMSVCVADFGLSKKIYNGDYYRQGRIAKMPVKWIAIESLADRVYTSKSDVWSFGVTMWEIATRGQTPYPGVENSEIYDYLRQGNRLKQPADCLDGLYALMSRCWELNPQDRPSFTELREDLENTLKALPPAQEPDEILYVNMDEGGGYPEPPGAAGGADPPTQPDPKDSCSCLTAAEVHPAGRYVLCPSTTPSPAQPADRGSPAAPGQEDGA
Procedure: Next, the test compound was diluted with DMSO, and 1 μl of this diluted solution was added to each well.
Five microliters of this solution were added to each well to initiate a kinase reaction. The plate was incubated at 28° C. for 1.5 hours, and 40 μl of a termination buffer (100 mM HEPES (pH 7.4), 0.015% Brij-35, 40 mM EDTA, 0.1% Coating Reagent 3) was added to each well to terminate the reaction.
The substrate peptide and the phosphorylated peptide in the reaction solution were separated and quantified by EZ Reader II (Caliper Life Sciences).
IC50 was determined from inhibition data for 12 test compound concentrations by nonlinear regression (four-parameter logistic regression) using the following formula.

| IC50 [1] [nM] | IC50 [2] [nM] | SMILES |
| --- | --- | --- |
| 50 to 100 | 1 to 10 | COC1CN(C(=O)c2cn(Cc3ccc(F)cc3)cc(C(=O)Nc3ccc(-c4cc(-c5cnn(C[C@H]6COCCO6)c5)cnc4N)cc3)c2=O)C1 [Example 72, N-[4-(2-Amino-5-{1-[(2S)-1,4-dioxan-2-ylmethyl]-1H-pyrazol-4-yl}pyridin-3-yl)phenyl]-1-(4-fluorobenzyl)-5-[(3-methoxyazetidin-1-yl)carbonyl]-4-oxo-1,4-dihydropyridine-3-carboxamide] |
| 100 to 500 | 10 to 20 | Nc1ncc(-c2cccc(Cl)c2)cc1-c1ccc(NC(=O)c2cn(CC(F)(F)F)cc(-c3ccc(F)cc3)c2=O)cc1 [Example 36, N-{4-[2-Amino-5-(3-chlorophenyl)pyridin-3-yl]phenyl}-5-(4-fluorophenyl)-4-oxo-1-(2,2,2-trifluoroethyl)-1,4-dihydropyridine-3-carboxamide] |
| 50 to 100 | 1 to 10 | COc1ccc(-c2cnc(N)c(-c3ccc(NC(=O)c4cn(CCO)cc(-c5ccc(F)cc5)c4=O)cc3)c2)cc1OC [Example 7, N-{4-[2-Amino-5-(3,4-dimethoxyphenyl)pyridin-3-yl]phenyl}-5-(4-fluorophenyl)-1-(2-hydroxyethyl)-4-oxo-1,4-dihydropyridine-3-carboxamide] |
| 50 to 100 | 1 to 10 | COc1cccc(-c2cnc(N)c(-c3ccc(NC(=O)c4cn(CC(F)(F)F)cc(-c5ccc(F)cc5)c4=O)cc3)c2)c1 [Example 33, N-{4-[2-Amino-5-(3-methoxyphenyl)pyridin-3-yl]phenyl}-5-(4-fluorophenyl)-4-oxo-1-(2,2,2-trifluoroethyl)-1,4-dihydropyridine-3-carboxamide] |
| 50 to 100 | 1 to 10 | COc1ccc(-c2cnc(N)c(-c3ccc(NC(=O)c4cn(C[C@H]5COCCO5)cc(-c5ccc(F)cc5)c4=O)cc3)c2)cc1OC [Example 14, N-{4-[2-Amino-5-(3,4-dimethoxyphenyl)pyridin-3-yl]phenyl}-1-[(2S)-1,4-dioxan-2-ylmethyl]-5-(4-fluorophenyl)-4-oxo-1,4-dihydropyridine-3-carboxamide] |
| 100 to 500 | 1 to 10 | CCN(CC)CCn1cc(C(=O)Nc2ccc(-c3cc(-c4cnn(C[C@H]5COCCO5)c4)cnc3N)cc2)c(=O)c(-c2ccc(F)cc2)c1 [Example 69, N-[4-(2-Amino-5-{1-[(2S)-1,4-dioxan-2-ylmethyl]-1H-pyrazol-4-yl}pyridin-3-yl)phenyl]-1-[2-(diethylamino)ethyl]-5-(4-fluorophenyl)-4-oxo-1,4-dihydropyridine-3-carboxamide] |
| 100 to 500 | 1 to 10 | COc1ccc(-c2cnc(N)c(-c3ccc(NC(=O)c4cn(CCOC5CCCCO5)cc(-c5ccc(F)cc5)c4=O)cc3)c2)cc1OC (racemic) [Example 6, N-{4-[2-Amino-5-(3,4-dimethoxyphenyl)pyridin-3-yl]phenyl}-5-(4-fluorophenyl)-4-oxo-1-[2-(tetrahydro-2H-pyran-2-yloxy)ethyl]-1,4-dihydropyridine-3-carboxamide] |
| 100 to 500 | 10 to 20 | CC(C)(O)Cn1cc(C(=O)Nc2ccc(-c3cc(-c4cnn(C[C@H]5COCCO5)c4)cnc3N)cc2)c(=O)c(-c2ccc(F)cc2)c1 [Example 68, N-[4-(2-Amino-5-{1-[(2S)-1,4-dioxan-2-ylmethyl]-1H-pyrazol-4-yl}pyridin-3-yl)phenyl]-5-(4-fluorophenyl)-1-(2-hydroxy-2-methylpropyl)-4-oxo-1,4-dihydropyridine-3-carboxamide] |

| SMILES | IC50 [1] [nM] | IC50 [2] [nM] |
| --- | --- | --- |
| CC(=O)N1C2C=C(c3cnc(N)c(-c4ccc(NC(=O)c5cn(CCF)cc(-c6ccc(F)cc6)c5=O)cc4)c3)CC1CC2 (stereo not drawn) [Example 81, N-{4-[5-(8-Acetyl-8-azabicyclo[3.2.1]oct-2-en-3-yl)-2-aminopyridin-3-yl]phenyl}-1-(2-fluoroethyl)-5-(4-fluorophenyl)-4-oxo-1,4-dihydropyridine-3-carboxamide] | 100 to 500 | 23 |
